Test results as given in patent US8076332B2, “N- (2-aminophenyl) benzamide derivative having urea structure” (Santen Pharmaceutical Co., Ltd., priority 2006, dated 2011).

System: human trabecular meshwork cell line (TM-1 cells)
Assay: Test for evaluation of effect of morphological change on trabecular meshwork cells (cell shape index, CSI)
Type: cell-based
Conditions: final concentration 10 μM, incubation 24 hours, CSI=4π×(Cell Area)/(Cell Perimeter)^2, average per group, Control 0.730
Experimental: 1. Test for Evaluation of Effect of Morphological Change on Trabecular Meshwork Cells
As a method for evaluating a cellular morphological change, an evaluation system using the cell shape index (hereinafter referred to as “CSI”) as an index has been reported in The Journal of Clinical Investigation, 103, 1141-1150 (1999). Therefore, according to the method described in the above document, an effect of morphological change of the present compounds on trabecular meshwork cells was evaluated.
A human trabecular meshwork cell line (hereinafter referred to as “TM-1 cells”) reported in Investigative Opthalmology & Visual Science, 43, 151-161 (2002) was used.
Culture medium 1: A reagent was prepared by adding fetal bovine serum (10%), L-glutamine (2 mM), amphotericin B (2.5 μg/mL), and gentamicin (25 μg/mL) to Dulbecco's modified Eagle medium (hereinafter referred to as “D-MEM”).
Culture medium 2: Fetal bovine serum (3%), L-glutamine (2 mM), amphotericin B (2.5 μg/mL), and gentamicin (25 μg/mL) were added to D-MEM.
Cell staining liquid: A mixed liquid of Calcein-AM (16 μM) and Hoechst 33342 (40 μM) was prepared by diluting a Calcein-AM solution (cytoplasmic staining reagent, manufactured by Dojindo Laboratories) and a Hoechst 33342 solution (nuclear staining reagent, manufactured by Dojindo Laboratories) with D-MEM containing L-glutamine (2 mM), amphotericin B (2.5 μg/mL), and gentamicin (25 μg/mL).
TM-1 cells subcultured at 37° C. in a 8% carbon dioxide gas atmosphere were treated with a trypsin/EDTA solution (0.05% trypsin and 0.53 mM tetrasodium ethylenediaminetetraacetate) at 24 hours before performing a drug treatment mentioned below and seeded on a 96-well culture plate. The culture medium 1 was used for the subculture of the cells. The culture medium 2 was used for the cell culture after seeding the cells on the plate.
A test compound was dissolved in dimethyl sulfoxide, whereby a 5 mM solution was prepared. Then, the resulting solution was diluted with the culture medium 2, whereby a 200 μM test compound solution was prepared.
It has been reported that Y-27632 which is a Rho kinase inhibitor induces a morphological change in trabecular meshwork cells in Investigative Ophthalmology & Visual Science, 42, 137-144 (2001). Therefore, Y-27632 (produced according to the method described in WO 90/05723) was used as a positive control, and dissolved in dimethyl sulfoxide in the same manner as the test compound, whereby a 5 mM solution was prepared, and then, the resulting solution was diluted with the culture medium 2, whereby a 200 μM positive control compound solution was prepared.
1) To a 96-well culture plate, a solution of TM-1 cells adjusted to a cell density of […] was added in an amount of 95 μL (1.5×10^4 cells) per well.
2) Incubation was performed at 37° C. in a 8% carbon dioxide gas atmosphere for 24 hours.
3) The test compound solution or positive control compound solution was added in an amount of 5 μL per well (the final concentration of the test compound or positive control compound was 10 μM). As a control, the culture medium 2 containing dimethyl sulfoxide (4%) was added in an amount of 5 μL per well.
4) Incubation was performed at 37° C. in a 8% carbon dioxide gas atmosphere for 24 hours.
5) The cell staining liquid was added in an amount of 10 μL per well.
6) Incubation was performed at 37° C. in a 8% carbon dioxide gas atmosphere for 1 hour to stain the cells.
7) A 37% formaldehyde solution was added in an amount of 10 μL per well.
8) Incubation was performed at room temperature for 1 hour to fix the cells.
9) Washing with phosphate-buffered saline was performed.
10) Using Array Scan Vti HCS reader (manufactured by Cellomics), images of stained cells magnified with a 20 times objective lens were captured in 80 fields (10 fields×8 wells) per test compound addition group.
11) CSI was calculated for each cell and an average value was obtained for each test compound addition group. […]

Structure (SMILES) | CSI
CN(C)CCCN(Cc1ccc(C(=O)Nc2ccccc2N)cc1)C(=O)NCCc1ccccc1 [Compound 1-28, N-(2-Aminophenyl)-4-[1-(3-dimethylaminopropyl)-3-phenylethylureidomethyl]benz-amide] | 0.514
CN(C)c1ccc(NC(=O)N(CCO)Cc2ccc(C(=O)Nc3ccccc3N)cc2)cc1 [Compound 1-47, N-(2-Aminophenyl)-4-[3-(4-dimethylaminophenyl)-1-(2-hydroxyethyol)ureidomethyl] benzamide] | 0.613
Nc1ccccc1NC(=O)c1ccc(CN(CC(O)CO)C(=O)Nc2ccc3c(c2)CCC3)cc1 (stereo not shown) [Compound 1-16, N-(2-Aminophenyl)-4-[1-(2,3-dihydroxypropyl)-3-(indan-5-yl)ureidomethyl]benz-amide] | 0.616
CN(C)CCCN(Cc1ccc(C(=O)Nc2ccccc2N)cc1)C(=O)Nc1ccc(F)c([N+](=O)[O-])c1 [Compound 1-102, N-(2-Aminophenyl)-4-[1-(3-dimethylaminopropyl)-3-(4-fluoro-3-nitrophenyl)ureido-methyl]benzamide] | 0.538
Cc1cc(NC(=O)N(CCCN2CCOCC2)Cc2ccc(C(=O)Nc3ccccc3N)cc2)ccc1F [Compound 1-135] | 0.555
COC(=O)c1ccc(NC(=O)N(CCCN(C)C)Cc2ccc(C(=O)Nc3ccccc3N)cc2)cc1 [Compound 1-46, N-(2-aminophenyl)-4-[1-(3-dimethylaminopropyl)-3-(4-methoxycarbonylphenyl)ureidomethyl]benzamide] | 0.581
COc1ccc(NC(=O)N(Cc2ccc(C(=O)Nc3ccccc3N)cc2)CC(C)(C)CN(C)C)cc1OC [Compound 1-36, N-(2-Aminophenyl)-4-[3-(3,4-dimethoxyphenyl)-1-(3-dimethylamino-2,2-dimethyl-propyl)ureidomethyl]benzamide] | 0.539
Nc1ccccc1NC(=O)c1ccc(CN(CCCN2CCOCC2)C(=O)Nc2ccc(OC(F)F)cc2)cc1 [Compound 1-60, N-(2-Aminophenyl)-4-[3-(4-difluoromethoxyphenyl)-1-[3-(morpholin-4-yl)propyl]ureidomethyl]benzamide] | 0.608
CN(C)CCCN(Cc1ccc(C(=O)Nc2ccccc2N)cc1)C(=O)Nc1cccc(OCc2ccccc2)c1 [Compound 1-76, N-(2-aminophenyl)-4-[3-(3-benzyloxyphenyl)-1-(3-dimethylaminopropyl)ureidomethyl]benzamide] | 0.649
CN1CCCC1CCN(Cc1ccc(C(=O)Nc2ccccc2N)cc1)C(=O)Nc1ccc(F)c(F)c1 (stereo not shown) [Compound 1-97, N-(2-Aminophenyl)-4-[3-(3,4-difluorophenyl)-1-[2-(1-methylpyrrolidin-2-yl)-ethyl]ureidomethyl]benzamide] | 0.595
CC1CCN(CCCN(Cc2ccc(C(=O)Nc3ccccc3N)cc2)C(=O)Nc2ccc3c(c2)OCCO3)CC1 [Compound 1-128, N-(2-Aminophenyl)-4-[3-(2,3-dihydrobenzo[1,4]dioxin-6-yl)-1-[3-(4-methylpiper-idin-1-yl)propyl]ureido-methyl]benzamide] | 0.554
CNCCN(Cc1ccc(C(=O)Nc2ccccc2N)cc1)C(=O)NC1CCCC1 [Compound 1-22, N-(2-Aminophenyl)-4-[3-cyclo-pentyl-1-(2-methylamino-ethyl)ureidomethyl]benz-amide] | 0.619
CN1CCN(CCN(Cc2ccc(C(=O)Nc3ccccc3N)cc2)C(=O)Nc2ccc3c(c2)OCCO3)CC1 [Compound 1-94, N-(2-Aminophenyl)-4-[3-(2,3-dihydrobenzo[1,4]dioxin-6-yl)-1-[2-(4-methylpiper-azin-1-yl)ethyl]ureidomethyl] benzamide] | 0.595
CN(C)CCCN(Cc1ccc(C(=O)Nc2ccccc2N)cc1)C(=O)Nc1cccc(O)c1 [Compound 3-1, N-(2-Aminophenyl)-4-[1-(3-dimethylaminopropyl)-3-(3-hydroxyphenyl)ureidomethyl]benzamide] | 0.616
CN(C)c1ccc(NC(=O)N(CCCN2CCOCC2)Cc2ccc(C(=O)Nc3ccccc3N)cc2)cc1 [Compound 1-31, N-(2-Aminophenyl)-4-[3-(4-dimethylaminophenyl)-1-[3-(morpholin-4-yl)propyl]ureidomethyl]benzamide] | 0.632
Nc1ccccc1NC(=O)c1ccc(CN(CC2CCNCC2)C(=O)Nc2ccc(Cl)cc2)cc1 [Compound 1-34, N-(2-Aminophenyl)-4-[3-(4-chlorophenyl)-1-(piperidin-4-ylmethyl)ureidomethyl] benzamide] | 0.681
CNCCN(Cc1ccc(C(=O)Nc2ccccc2N)cc1)C(=O)Nc1ccc2c(c1)OCCO2 [Compound 1-23, N-(2-Aminophenyl)-4-[3-(2,3-dihydrobenzo[1,4]dioxin-6-yl)-1-(2-methylamino-ethyl)ureidomethyl]benzamide] | 0.534
Nc1ccc(NC(=O)N(CCCN2CCOCC2)Cc2ccc(C(=O)Nc3ccccc3N)cc2)cc1 [Compound 1-66, N-(2-Aminophenyl)-4-[3-(4-aminophenyl)-1-[3-(mor-pholin-4-yl)propyl]ureidomethyl] benzamide] | 0.624
CN(C)CCN(Cc1ccc(C(=O)Nc2ccccc2N)cc1)C(=O)NCCc1ccccc1 [Compound 1-4, N-(2-Aminophenyl)-4-[1-(2-dimethylaminoethyl)-3-phenethylureidomethyl]benz-amide] | 0.545
CN(C)CCCN(Cc1ccc(C(=O)Nc2ccccc2N)cc1)C(=O)Nc1cccnc1 [Compound 1-104, N-(2-Aminophenyl)-4-[1-(3-dimethylaminopropyl)-3-(pyridin-3-yl)ureidomethyl]-benzamide] | 0.609
CN(C)CCN(Cc1ccc(C(=O)Nc2ccccc2N)cc1)C(=O)Nc1ccccc1 [Compound 1-2, N-(2-Aminophenyl)-4-[1-(2-dimethylaminoerthyl)-3-phenyl-ureidomethyl]benzamide] | 0.599
Nc1ccccc1NC(=O)c1ccc(CN(CCCN2CCOCC2)C(=O)Nc2ncc([N+](=O)[O-])s2)cc1 [Compound 1-165, N-(2-Aminophenyl)-4-[1-(3-(morpholin-4-yl)propyl]-3-(5-nitrothiazol-2-yl)ureido-methyl]benzamide] | 0.578
NCCCN(Cc1ccc(C(=O)Nc2ccccc2N)cc1)C(=O)Nc1ccc2c(c1)OCCO2 [Compound 1-39, N-(2-Aminophenyl)-4-[1-(3-aminopropyl)-3-(2,3-di-hydrobenzo[1,4]dioxin-6-yl)ureidomethyl]benzamide] | 0.615
Nc1ccccc1NC(=O)c1ccc(CN(CCO)C(=O)NCCc2ccccc2)cc1 [Compound 1-49, N-(2-Aminophenyl)-4-[1-(2-hydroxyethyl)-3-phenylethyl-ureidomethyl]benzamide] | 0.630
CCOC(=O)CNC(=O)N(CCCN(C)C)Cc1ccc(C(=O)Nc2ccccc2N)cc1 [Compound 2-4] | 0.664
CN1CCN(CCN(Cc2ccc(C(=O)Nc3ccccc3N)cc2)C(=O)Nc2ccc(F)c(F)c2)CC1 [Compound 1-113, N-(2-Aminophenyl)-4-[3-(3,4-difluorophenyl)-1-[2-(4-methylpiperazin-1-yl)ethyl]-ureidomethyl]benzamide] | 0.585
COc1ccc(N)c(NC(=O)c2ccc(CN(CCN(C)C)C(=O)Nc3ccc4c(c3)CCC4)cc2)c1 [Compound 1-107, N-(2-Amino-5-methoxyphenyl)-4-[1-(2-dimethylamino-ethyl)-3-(indan-5-yl)ureod-methyl]benzamide] | 0.663
Nc1ccccc1NC(=O)c1ccc(CN(CCCN2CCOCC2)C(=O)Nc2ccsc2)cc1 [Compound 1-134, N-(2-Aminophenyl)-4-[1-(3-(morpholin-4-yl)propyl]-3-(thiophen-3-yl)ureido-methyl]benzamide] | 0.580
